Reference: patent publication US6939876B2, “Prevention of addiction in pain management” (priority 2001, dated 2005)

Columns and labels:
[1] = test system: extracellular DA concentrations in the nucleus accumbens (NAcc); test: In vivo microdialysis: morphine-induced extracellular DA in the nucleus accumbens of freely moving rats; parameters: species or system Sprague-Dawley rats
Description: The effects of increased endogenous GABA activity on morphine-induced extracellular DA concentrations in the nucleus accumbens (NAcc) of freely moving rats was explored.
All animals there used under an IACUC-approved protocol and with strict adherence to the NIH guidelines. Adult male Sprague-Dawley rats (200-300 g, Taconic Farms), housed in the animals care facility under 12:12 light/dark conditions, were placed into 6 groups (n=3-6), anesthetized and siliconized guide cannulae were stereotactically implanted into the right NAcc (2.0 mm anterior and 1.0 mm lateral to bregms, and 7.0 mm ventral to the cortical surface) and prefrontal cortex (PFC) at least 4 days prior to study. Microdialysis probes (2.0 mm, Bioanalytical Systems, BAS, West Lafayette. Ind.) were positioned within the guide cannulae and artificial cerebrospinal fluid (ACSF. 155.0 mM NA^−, 1.1 mM Ca^2−, 2.9 mM K^−, 132.76 mM Cl^−, and 0.83 mM Mg^2−) was administered through the probe using a CMA/100 microinfusion pump (BAS) at a flow rate of 2.0 μl/min.
Animals were placed in bowls, and probes were inserted and flushed with ACSF overnight. On the day of the study. a minimum of three samples were injected to determine baseline stability. Samples were collected for 20 min. and injected on-line (CMA/160, BAS). The average dopamine concentration of these three stable samples was defined as control (100%). and all subsequent treatment values were transformed to a percentage of that control. Upon establishing a stable baseline, the morphine was administered by intraperitoneal (i.p.) injection. The high performance liquid chromatography (HPLC) system consists of a BAS reverse-phase column (3.0 μC-18), a BAS LC-4C electrochemical transducer with a dual/glassy carbon electrode set at 650 mV, a computer that analyzes data on-line using a commercial software package (Chromograph Bioanalytical Systems), and a dual pen chart recorder. The mobile phase (flow rate 1.0 ml/min) consisted of 7.0% methanol, 50 mM sodium phosphate monobasic, 1.0 mM sodium octyl sulfate, and 0.1 mm […], pH 4.0. DA eluted at 7.5 min.
Gamma-vinyl GABA (GVG), an irreversible inhibitor of GABA-transaminase, was administered by intraperitoneal injection 2.5 hours prior to morphine (7 mg/kg). In all studies, animals were placed in the microdialysis bowls the night before the experiment and artificial cerebrospinal fluid (ACSF) was perfused through the microdialysis probes at a flow rate of 2.0 μl/min. At the end of each study, animals were sacrificed and their brains were removed and sectioned for probe placement verification
Levels of extracellular DA were sampled from the NAcc continuously using a stereoaxically implanted probe. Morphine alone increases DA concentrations 50% above baseline in the NAcc (p<0.01, T=3.79).

male Sprague-Dawley rats [2] = test: Hot plate test (53 degrees Centigrade), latency to forepaw licking; format: in vivo; conditions: for Licking latency: mean ± S.E.M., 10 rats
Method: The effect of GVG on the analgesic potency of morphine in male Sprague-Dawley rats was examined using the hot plate test. In this paradigm, animals are treated and placed on a hot plate at a temperature of 53 degrees Centigrade and the latency to licking of one of the forepaws was measured. This test is used as screen for agents that have moderate to significant analgesic action as these drugs will increase latency to forepaw licking.
The rats were treated with either vehicle or GVG 2.5 hours prior to receiving either vehicle or morphine. Animals were given either vehicle or morphine 30 minutes prior to placing them on a hot plate at a constant temperature of 53 degrees Centigrade. Analgesic potency was assessed by measuring the latency to forepaw licking after placement on the hot plate. A total of 10 rats were examined for each treatment group.

male Sprague-Dawley rats [3] = test: Heroin-induced conditioned place preference (CPP), expression phase; format: in vivo; conditions: for Time spent in chambers, Paired / Time spent in chambers, Unpaired: mean ± S.E.M.
Description: In all rodent studies, male Sprague-Dawley rats were used (200-225 g. Taconic farms, Germantown, N.Y.). Animals were allowed to acclimate to the animal housing facility for at least 5 days prior to beginning the experiments. Conditioned place preference (CPP) chambers were used as previously described (Lepore et al., 1995), except instead of one chamber being entirely white and the other black, one chamber was entirely light blue with a stainless steel floor and the second chamber was light blue with horizontal black stripes (2.5 cm wide) spaced 3.8 cm apart with a smooth plexiglass floor. In all CPP studies with GVG, the saline volume was (1 ml/kg), and the heroin doses were 1.5 mg/kg. The saline, heroin and GVG were all injected intraperitonealy (i.p.). The conditioning procedure for the acquisition phase consisted of 12 sessions carried out consecutively over 12 days.
The CPP pairings were: 1) saline/saline 2) saline/heroin 3) GVG/saline 4) saline/heroin and GVG. The animals in each group were randomly assigned to a 2×2 factorial design ,with one factor being the pairing chamber and the other factor being the order of conditioning. The animals that received either saline or heroin were injected and confined to the appropriate compartment for 30 minutes. The GVG injections were given 3 hours before saline or heroin injection and subsequent placement of the animals in the appropriate chamber. This was done as it has been shown that GABA levels reach maximal values 3 to 4 hours following GVG administration.
On the test day (day 12), neither drugs nor saline were administered and the animal was allowed to move freely between both chambers for fifteen minutes. The amount of time spent in each chamber was recorded using an automated infrared beam electronically coupled to a timer. For the expression phase of CPP to heroin, the animals were habituated and conditioned to heroin as described in the acquisition studies, but no animals in the expression studies were given GVG on conditioning days. On the test day (day 12), the animals being tested in the expression phase, unlike the animals in the acquisition phase, received either saline or GVG 2.5 hours before they were placed in the apparatus and allowed free access to both chambers for 15 minutes.

[4] = pairing Vehicle/Heroin, GVG 300 mg/kg on test day (2.5 h before test)
[5] = pairing Vehicle/Vehicle, GVG 300 mg/kg on test day
[6] = pairing Vehicle/Heroin (heroin 1.5 mg/kg i.p.), vehicle on test day

Compound: C=CC(N)CCC(=O)O (stereo not drawn) [GVG, 4-amino-5-hexanoic acid]
- Inhibition of the DA response to morphine in the NAcc ([1]; GVG 150 mg/kg i.p. 2.5 hours prior to morphine 7 mg/kg): no significant inhibition
- Attenuation of the DA response to morphine in the NAcc ([1]; GVG 300 mg/kg i.p. 2.5 hours prior to morphine 7 mg/kg, p<0.01): 62%
- Attenuation of the DA response to morphine in the NAcc ([1]; GVG 500 mg/kg i.p. 2.5 hours prior to morphine 7 mg/kg, p<0.001): 67%
- Effect of GVG on the analgesic potency of morphine (male Sprague-Dawley rats [2]; GVG 300 mg/kg i.p. 2.5 hrs prior to morphine 10 mg/kg i.p.): does not alter the analgesic potency of morphine
- Licking latency (male Sprague-Dawley rats [2]; pretreatment GVG 300 mg/kg (2.5 h before), treatment morphine 10 mg/kg): 27 ± 2.9 s
- Licking latency (male Sprague-Dawley rats [2]; pretreatment GVG 300 mg/kg (2.5 h before), treatment vehicle 1 ml/kg): 17 ± 1.4+ sec
- Effect on expression of heroin-induced CPP (male Sprague-Dawley rats [3]; GVG 300 mg/kg on test day): blocked the expression of heroin-induced CPP
- Time spent in chambers, Paired (male Sprague-Dawley rats [3]; [4]): 6.6 ± 0.7 min
- Time spent in chambers, Unpaired (male Sprague-Dawley rats [3]; [4]): 8.4 ± 0.7 min
- Time spent in chambers, Paired (male Sprague-Dawley rats [3]; [5]): 7.4 ± 0.3 min
- Time spent in chambers, Unpaired (male Sprague-Dawley rats [3]; [5]): 7.6 ± 0.3 min

Compound: CN1CC[C@]23c4c5ccc(O)c4O[C@H]2[C@@H](O)C=C[C@H]3[C@H]1C5 [Morphine, morphine]
- Increase of DA concentrations above baseline in the NAcc ([1]; morphine alone, 7 mg/kg i.p., baseline = 100%, p<0.01): 50%
- Licking latency (male Sprague-Dawley rats [2]; pretreatment vehicle 1 ml/kg, treatment morphine 10 mg/kg 30 min before hot plate): 27 ± 3.0 s

Compound: CC(=O)Oc1ccc2c3c1O[C@H]1[C@@H](OC(C)=O)C=C[C@H]4[C@@H](C2)N(C)CC[C@@]341 [Heroin, heroin]
- Time spent in chambers, Paired (male Sprague-Dawley rats [3]; [6]): 10.9 ± 0.4 min
- Time spent in chambers, Unpaired (male Sprague-Dawley rats [3]; [6]): 4.1 ± 0.4 min
